Data reported in patent US20100037351A1, “Alteration of Phospholipase De (PLDe) or Phospholipase Da3 (PLD a3) Expression in Plants” (DONALD DANFORTH PLANT SCIENCE CENTER, priority 2008, published 2010).

Key:
Arabidopsis seedlings = details: for effect on number and length of lateral roots: MS with 6 mM N containing 0.15% butanol, OE, WT and KO seedlings, measured 6 days after transfer
Protocol: (A) Four-day-old seedlings were transferred to Murashige and Skoog (MS) containing 6 mM N for 12 days. […] Root length and number were measured 6 days after transfer. Values are means±SD (n=30).
To test N response on plates, surface-sterilized seeds were germinated in MS (1×) agar plates supplement with 3% sucrose for 4 days and then were transferred to modified MS agar plates containing 0.1, 0.6, 2, 6, 60 mM N, NO3^−:NH4^−=2:1). […] Seedlings were grown on plates in a vertical orientation in a growth chamber under the conditions of 16-h light/8-h dark, 23/21° C., cool fluorescent white light (200 mmol m^−2 s^−1). Alternatively, seeds were also directly germinated in agar plates with the same conditions as described above.

S6K = S6K binding to lipids immobilized on a nitrocellulose filter; parameters: species or system Arabidopsis; details: 10 mg lipid spotted; leaf proteins 1.2 mg/ml; anti-human p70 S6K antibody
Protocol: FIG. 5 depicts S6K levels under different N levels. (A) and (B) S6K protein levels detected by immunoblotting with anti-p70 S6K and anti-phospho-p70 S6K (Thr389) antibodies, respectively. Four-day-old seedlings were transferred to MS plates with the indicated N levels for 10 days. The same amount of proteins ([…]/lane) was separated by 10% SDS-PAGE and transferred to a nitrocellulose membrane. (C) S6K binding to PA immobilized on filter. Lipid (10 mg) was spotted on nitrocellulose filter, and incubated with leaf proteins (1.2 mg/ml), followed by blotting with anti-human p70 S6K antibody. (D) S6K binding to liposomes composed of PA (PA:PC=1:2), PC, or PI only (650 nmol of total lipids). (E) Total S6K, but not phosphorylated S6K binding to PA:PC liposomes. Proteins were extracted from WT and PLDε-altered seedlings. Bound proteins were separated by SDS-PAGE and detected by blotting with anti-human p70 S6K antibody or anti-human p389 p70 S6K antibody.
PLDε: PA-Protein Binding by Blotting and Liposomal Assays. S6K binding to lipids immobilized on a nitrocellulose filter was performed as described (Zhang, W., Qin, C., Zhao, J. & Wang, X. (2004) Proc. Natl. Acad. Sci. USA. 101, 9508-9513; Stevenson, J. M., Perera, I. Y. & Boss, W. F. (1998) J Biol Chem. 273, 22761-22767) with minor modifications. […] Protein binding to liposome was detected by immunoblotting as described above.

Compound	effect on biomass accumulation (Arabidopsis seedlings; 1-butanol treatment, data not shown)	effect on number and length of lateral roots (Arabidopsis seedlings)	S6K binding to lipid immobilized on filter (S6K)
CCCCO [1-Butanol, 1-butanol]	inhibited	inhibited	–
CCC(C)O (stereo not shown) [2-butanol]	–	no growth inhibitory effect	–
phosphatidic acid [PA]	–	–	bound
